According to patent US5622962A, “5α-reductase inhibitors” (priority 1995, dated 1997):

Assays:
[1] = molecular target: T1, Type I 5α-Reductase from Human Scalp (Homo sapiens, UniProt P18405); assay: Human Type I 5α-reductase assay (conversion of [3H]-testosterone to 5α-reduced metabolites); assay type: biochemical; details: pH 7.5, 0.3 μM; 50 nM [3H]-testosterone, pH 7.5, 25°, 180 min; compared to control reaction mixtures; read-out: percent inhibition of Type I AR
T1 construct: Scalp punch biopsies from graft recipient sites were obtained from human hair transplant procedures; from tissue; host or cells: human scalp punch biopsies (hair transplant graft recipient sites), homogenate, 100,000×g pellet
T1 sequence (P18405 1-259): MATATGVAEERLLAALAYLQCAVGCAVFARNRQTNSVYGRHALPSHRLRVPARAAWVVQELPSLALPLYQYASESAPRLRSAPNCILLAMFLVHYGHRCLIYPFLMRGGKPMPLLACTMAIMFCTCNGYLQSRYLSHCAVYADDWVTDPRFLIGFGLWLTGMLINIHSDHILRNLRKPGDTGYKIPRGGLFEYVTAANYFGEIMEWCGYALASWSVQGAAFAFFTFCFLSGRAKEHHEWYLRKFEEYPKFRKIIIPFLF

[2] = molecular target: T2, Type II 5α-Reductase from Human Prostate (Homo sapiens, UniProt P31213); assay: Human Type II 5α-reductase assay (conversion of [3H]-testosterone to 5α-reduced metabolites); assay type: biochemical; details: pH 5.5, 0.3 μM; sodium acetate pH 5.5, 25°, 30 min; compared to control reaction mixtures; read-out: percent inhibition of Type II AR
T2 construct: The same procedure as above was used for preparations using tissue from prostate surgery; from tissue; host or cells: human prostate tissue from surgery, homogenate, 100,000×g pellet
T2 sequence (P31213 1-254): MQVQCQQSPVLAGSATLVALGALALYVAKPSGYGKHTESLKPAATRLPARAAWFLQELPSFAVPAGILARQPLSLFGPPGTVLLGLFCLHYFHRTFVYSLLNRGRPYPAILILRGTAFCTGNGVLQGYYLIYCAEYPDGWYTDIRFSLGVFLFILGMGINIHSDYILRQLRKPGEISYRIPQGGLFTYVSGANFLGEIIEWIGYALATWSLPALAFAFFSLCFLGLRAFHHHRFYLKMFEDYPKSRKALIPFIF

inhibition at 0.3 µM [1] [%] | inhibition at 0.3 µM [2] [%] | Compound
92 | 45 | CN1C(=O)CC[C@]2(C)c3ccc(-c4ccc5c6c(cccc46)C(=O)N(C4CCN(Cc6ccccc6)CC4)C5=O)cc3CC[C@@H]12 [Example 246, (+)-(4aR)-(10bR)-4-methyl-8-[2-(4-[N-benzyl]piperidinyl)-1H-benzo<de>isoquinolin-6-yl-1,3-(2H)dione]-10b-methyl-1,2,3,4,4a,5,6,10b-octahydrobenzo[f]quinolin-3-one]
67 | 69 | CN1C(=O)CC[C@]2(C)c3ccc(Sc4nc5ccccc5o4)cc3CC[C@@H]12 [Example 150, (+)-(4aR)-(10bR)-4-methyl-8-(2-benzoxazolylthio)-10b-methyl-1,2,3,4,4a,5,6,10b-octahydrobenzo[f]quinolin-3-one]
16 | 8 | CN1C(=O)CC[C@]2(C)c3ccc(-c4cc5c6c(c4)N(C(=O)c4ccccc4)C[C@@H]6C[C@H](N)C5)cc3CC[C@@H]12 [Example 226, (+)-(4aR)-(10bR)-4-methyl-8-(2aR,4S-1-benzoyl-4-amino-2,2a,3,4-tetrahydrobenz[cd]-1H-indol-7-yl)-10b-methyl-1,2,3,4,4a,5,6,10b-octahydrobenzo[f]quinolin-3-one]
33 | 13 | CC(=O)N1CCc2cc(-c3ccc4c(c3)CC[C@H]3N(C)C(=O)CC[C@]43C)cc([N+](=O)[O-])c21 [Example 237, (+)-(4aR)-(10bR)-4-methyl-8-(1-acetyl-7-nitroindolin-5-yl)-10b-methyl-1,2,3,4,4a,5,6,10b-octahydrobenzo[f]quinolin-3-one]
57 | 44 | CN1C(=O)CC[C@]2(C)c3ccc(-c4ccc5c(c4)Cc4ccccc4-5)cc3CC[C@@H]12 [Example 131, (+)-(4aR)-(10bR)-4-methyl-8-(2-fluorenyl)-10b-methyl-1,2,3,4,4a,5,6,10b-octahydrobenzo[f]quinolin-3-one]
88 | 18 | CN1C(=O)CC[C@]2(C)c3ccc(-c4ccccc4Cl)cc3CC[C@@H]12 [Example 41, (+)-(4aR)-(10bR)-4-methyl-8-(2-chlorophenyl)-10b-methyl-1,2,3,4,4a,5,6,10b-octahydrobenzo[f]quinolin-3-one]
51 | 32 | CN1C(=O)CC[C@]2(C)c3ccc(-c4ccc5ncccc5c4)cc3CC[C@@H]12 [Example 244, (+)-(4aR)-(10bR)-4-methyl-8-(6-quinolinyl)-10b-methyl-1,2,3,4,4a,5,6,10b-octahydrobenzo[f]quinolin-3-one]
23 | 32 | CN1C(=O)CC[C@]2(C)c3ccc(-c4ccccc4[N+](=O)[O-])cc3CC[C@@H]12 [Example 124, (+)-(4aR)-(10bR)-4-methyl-8-(2-nitrophenyl)-10b-methyl-1,2,3,4,4a,5,6,10b-octahydrobenzo[f]quinolin-3-one]
86 | 11 | CN1C(=O)CC[C@]2(C)c3ccc(-c4cccc(NC(c5ccccc5)c5ccccc5)c4)cc3CC[C@@H]12 [Example 272, (+)-(4aR)-(10bR)-4-methyl-8-(3-diphenylmethylaminophenyl)-10b-methyl-1,2,3,4,4a,5,6,10b-octahydrobenzo[f]quinolin-3-one]
78 | 24 | CN1C(=O)CC[C@]2(C)c3ccc(-c4cc(F)cc(C(F)(F)F)c4)cc3CC[C@@H]12 [Example 216, (+)-(4aR)-(10bR)-4-methyl-8-(3-fluoro-5-trifluoromethylphenyl)-10b-methyl-1,2,3,4,4a,5,6,10b-octahydrobenzo[f]-quinolin-3-one]
71 | 18 | CN1C(=O)CC[C@]2(C)c3ccc(-c4ccc(NC(=O)C(C)(C)C)c5ccccc45)cc3CC[C@@H]12 [Example 32, (+)-(4aR)-(10bR)-4-methyl-8-(1-[4-t-butylcarbonylamino]naphthyl)-10b-methyl-1,2,3,4,4a,5,6,10b-octahydrobenzo[f]-quinolin-3-one]
71 | 20 | CN(C)CCN1C(=O)c2cccc3c(-c4ccc5c(c4)CC[C@H]4N(C)C(=O)CC[C@]54C)ccc(c23)C1=O [Example 224, (+)-(4aR)-(10bR)-4-methyl-8-(2-(2-dimethylaminoethyl)-1H-benzo<de>isoquinolin-6-yl-1,3-(2H)dione)-10b-methyl-1,2,3,4,4a,5,6,10b-octahydrobenzo[f]quinolin-3-one]
50 | 49 | CN1C(=O)CC[C@]2(C)c3ccc(Sc4ccc([N+](=O)[O-])cn4)cc3CC[C@@H]12 [Example 166, (+)-(4aR)-(10bR)-4-methyl-8-(5-nitro-2-pyridinylthio)-10b-methyl-1,2,3,4,4a,5,6,10b-octahydrobenzo[f]quinolin-3-one]
76 | 29 | CN1C(=O)CC[C@]2(C)c3ccc(-c4cccc(C(F)(F)F)c4)cc3CC[C@@H]12 [Example 80, (+)-(4aR)-(10bR)-4-methyl-8-(3-trifluoromethylphenyl)-10b-methyl-1,2,3,4,4a,5,6,10b-octahydrobenzo[f]quinolin-3-one]
53 | 38 | CN1C(=O)CC[C@]2(C)c3ccc(C(=O)c4ccccc4)cc3CC[C@@H]12 [Example 286, (4aR)-(10bR)-8-benzoyl-4,10b-dimethyl-1,2,3,4,4a,5,6,10b-octahydrobenzo[f]quinolin-3-one]
92 | 3 | CN1C(=O)CC[C@]2(C)c3ccc(-c4ccc(Oc5ccccc5)cc4)cc3CC[C@@H]12 [Example 56, (+)-(4aR)-(10bR)-4-methyl-8-(4-phenoxyphenyl)-10b-methyl-1,2,3,4,4a,5,6,10b-octahydrobenzo[f]quinolin-3-one]
79 | 42 | Cc1ccc(-c2ccc3c(c2)CC[C@H]2N(C)C(=O)CC[C@]32C)c2ccccc12 [Example 65, (+)-(4aR)-(10bR)-4-methyl-8-(1-[4-methyl]naphthyl)-10b-methyl-1,2,3,4,4a,5,6,10b-octahydrobenzo[f]quinolin-3-one]
8 | 17 | CN1C(=O)CC[C@]2(C)c3ccc(NC(=O)c4ccc([N+](=O)[O-])cc4)cc3CC[C@@H]12 [Example 269, (4aR)-(10bR)-4,10b-dimethyl-8-(4-nitrobenzoylamino)-1,2,3,4,4a,5,6,10b-octahydrobenzo[f]quinolin-3-one]
73 | 31 | CSc1cccc(-c2ccc3c(c2)CC[C@H]2N(C)C(=O)CC[C@]32C)c1 [Example 212, (+)-(4aR)-(10bR)-4-methyl-8-(3-methylthiophenyl)-10b-methyl-1,2,3,4,4a,5,6,10b-octahydrobenzo[f]quinolin-3-one]
97 | 46 | CN1C(=O)CC[C@]2(C)c3ccc(-c4ccc(C(F)(F)F)cc4[N+](=O)[O-])cc3CC[C@@H]12 [Example 134, (+)-(4aR)-(10bR)-4-methyl-8-(2-nitro-4-trifluoromethylphenyl)-10b-methyl-1,2,3,4,4a,5,6,10b-octahydrobenzo[f]-quinolin-3-one]
